From patent US20120040941A1, “5-(2--1-HYDROXYETHYL)-8-HYDROXYQUINOLIN-2(1H)-ONE AND ITS USE IN THE TREATMENT OF PULMONARY DISEASES” (priority 2009, published 2012) come the findings set out here.

Where only a bound is given, the exact number is not on record here.

Holding throughout (format): in vivo, human
Data set [1] concerns asthma patients. Description: Clinical Phase II study: lung function (spirometry, body plethysmography) after single inhaled doses. The text has this:
(§1) Clinical Phase II study: A randomised double-blind, double-dummy, placebo and active comparator-controlled, cross-over trial assesses the activity, safety, tolerability and pharmacokinetics of single doses of 5-(2-{[6-(2,2-difluoro-2-phenylethoxy)hexyl]amino}-1-(R)-hydroxyethyl)-8-hydroxyquinolin-2(1H)-one heminapadisylate by inhalation in asthma patients.
(§2) Methods: Men with a diagnosis of mild to moderate persistent asthma, as defined by the 2006 GINA guideline, for at least 6 months prior to screening and with a FEV 1 61-85% of the predicted normal values (according to Quanjer et al. 1993) were randomised to treatment sequences comprising a single-dose administration of 5-(2-{[6-(2,2-difluoro-2-phenylethoxy)hexyl]amino}-1-(R)-hydroxyethyl)-8-hydroxyquinolin-2(1H)-one heminapadisylate (at metered nominal doses of 5, 10 and 25 micrograms in the Cyclohaler® device), two administrations (at time points 0 and 12 hours) of Salmeterol (at a metered nominal dose of 50 micrograms in the Cyclohaler® device) and placebo administered all of them by means of a dry powder inhaler. Lung function measurements included (by spirometry) FEV1, PEF, FVC, FEF25-75, and (by body plethysmography) sGaw and Raw.

The nature of data set [2]: Clinical Phase II study: pharmacokinetics, plasma level after inhalation. To be noted: subjects receiving the dose of 5 micrograms by inhalation.
Description: as §1, §2

Data set [3] has as its system asthma patients. In words: Clinical Phase II study: safety and tolerability, adrenergic adverse events.
Description: as §1, §2

The mark [4] stands for this setting: single dose 5 micrograms, patients with asthma.

As to `O=c1ccc2c([C@@H](O)CNCCCCCCOCC(F)(F)c3ccccc3)ccc(O)c2[nH]1` [5-(2-{[6-(2,2-difluoro-2-phenylethoxy)hexyl]amino}-1-(R)-hydroxyethyl)-8-hydroxyquinolin-2(1H)-one], in the data set with asthma patients [1] (5, 10 and 25 micrograms), the “differences in dose effect between the different doses” value was “no evidence of differences in dose effect”. In the data set on asthma patients [1] (all doses (5, 10 and 25 micrograms), single inhalation), the “bronchodilatory action, time after dosing” value was “up to 36 hours”. The bronchodilation entry in the data set on asthma patients [1] (setting [4]) is reported as “supramaximal long-lasting bronchodilation”. Also, the “increase in average trough FEV1 compared to salmeterol” value with asthma patients [1] (single dose vs salmeterol 50 micrograms at 0 and 12 hours) is “statistically significant”. Also, the “average peak and trough FEV1 compared with placebo and with salmeterol” value in the data set on asthma patients [1] (single inhaled doses 5, 10 and 25 micrograms (all doses tested), salmeterol 2 x 50 micrograms, mild to moderate persistent asthma) is listed as “clearly increased”. The plasma level in data set [2] is less than 2.5 pg/mL. For the same molecule, the “adverse events commonly seen after adrenergic stimulation (tremor, tachycardia, restlessness)” value in the data set on asthma patients [3] (doses 5, 10 and 25 micrograms, single inhalation) is “occurred only with the two higher (10 and 25 micrograms) doses”. The systemic adrenergic effects entry with asthma patients [3] (setting [4]) is on record as “without producing systemic adrenergic effects”.
